Consider 22 molecules from patent publication US10233180B2, “Substituted nitrogen-containing heterocyclic derivatives, pharmaceutical compositions comprising the same and applications of antitumor thereof” (ZHEJIANG UNIVERSITY, priority 2014, dated 2019).

Usually pIC50 stands for −log10 of the IC50, conventionally taken in molar units. By IC50 is commonly meant the concentration that inhibits the measured activity by half.

One assay addresses T1, Akt1 (Homo sapiens, UniProt P31749).
T1 construct: purchased 32-021
Kind of assay: AKT1/PKBα KinEASE FP Fluorescein Green Assay (fluorescence polarization kinase kit). The class given is biochemical. Particulars: 1 h reaction, read-out: Inhibitory activities against Akt1 (IC50). In short, it runs like this: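 FP competition kinase assay: compounds (50 μM stock) with STK Substrate 3 and ATP, 1 h reaction at room temperature; stopped with stop/antibody mix, 4 h at room temperature, then polarization read. Inhibition derived from polarization values; IC50 calculated; triplicate wells.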
(Fluorescence polarisation rises when a labelled molecule tumbles more slowly, as on binding a larger partner.)

In assay [1] the test system is Human ovarian cancer cell strain OVCAR-8. Briefly: MTT assay, inhibition of tumor cell growth in vitro, 72 h. The assay is classed as cell-based. Particulars: Homo sapiens, OVCAR-8, MTT, read-out: Antitumor proliferative activities of tumor cell (IC50, μM) OVCAR-8. The gist of the method: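 OVCAR8 cells in RPMI 1640 plus FBS were seeded at 4000 cells/well and exposed for 72 h at 37 °C to compound at 50, 10, 2, 0.4 and 0.08 μM final, with 1% DMSO as blank. Inhibition was calculated from OD relative to control, and IC50 was derived by the Bliss method.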

For assay [2], the system named is human colon cancer cell strain HCT-116. The assay is described as above. The assay is classed as cell-based. The settings on record: Homo sapiens, HCT-116, MTT, read-out: Antitumor proliferative activities of tumor cell (IC50, μM) HCT-116 (converted). The gist of the method:
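Cells in RPMI 1640 with FBS, 4000 cells/well, exposed 72 h at 37 °C, 5% CO2 to final 50, 10, 2, 0.4 and 0.08 μM; 1% DMSO blank. MTT OD gives % inhibition versus control; IC50 derived by Bliss method.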

pIC50: −log10 of the molar value.

T1 sequence (P31749 whole entry): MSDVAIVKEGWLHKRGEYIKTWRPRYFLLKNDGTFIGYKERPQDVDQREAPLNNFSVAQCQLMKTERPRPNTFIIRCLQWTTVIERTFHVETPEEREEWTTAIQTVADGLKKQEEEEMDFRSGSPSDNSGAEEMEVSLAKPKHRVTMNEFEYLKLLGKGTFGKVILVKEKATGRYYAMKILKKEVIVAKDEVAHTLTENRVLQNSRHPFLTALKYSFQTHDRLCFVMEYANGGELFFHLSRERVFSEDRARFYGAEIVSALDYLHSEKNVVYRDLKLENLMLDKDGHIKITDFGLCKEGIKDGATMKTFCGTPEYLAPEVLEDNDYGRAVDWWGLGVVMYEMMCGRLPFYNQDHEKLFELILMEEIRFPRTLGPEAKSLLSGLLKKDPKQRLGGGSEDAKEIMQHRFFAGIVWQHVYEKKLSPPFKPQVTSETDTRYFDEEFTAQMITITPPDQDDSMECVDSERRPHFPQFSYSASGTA

On to `Cc1nc(C(=O)N[C@H]2CNCC[C@@H]2c2ccncc2)ccc1-c1c(Br)cnn1C` (racemic) [Compound 58, 6-methyl-5-(4-bromo-1-methyl-1H-pyrazol-5-yl)-N-(3,4-trans-4-(pyridinyl-4-yl)piperidin-3-yl)pyridinyl-2-formamide], for which the negative logarithm of the IC50 (pIC50) on Akt1 is 7.28. In addition, the IC50 was 3.68 µM in assay [1] and 15.8 µM in assay [2].

In the case of `Cn1ncc(Cl)c1-c1ccc(C(=O)N[C@@H]2CNC(CCNS(C)(=O)=O)C[C@H]2c2cccc(F)c2)cc1Cl` (stereo partly drawn) [Compound 103, 3-chloro-4-(4-chloro-1-methyl-1H-pyrazol-5-yl)-N-((3S,4S)-4-(3-fluorophenyl)-6-(2-(methylsulfonamido)ethyl)piperidin-3-yl)benzamide], the negative-log IC50 (pIC50) on Akt1 was 8.30. Besides, the values for the IC50 in assay [1] and in assay [2] were 1.11 µM and 2.81 µM, respectively.

With `CNC(=O)CC1C[C@@H](c2cccc(F)c2)[C@H](NC(=O)c2cc(Cl)c(-c3c(Cl)cnn3C)s2)CN1` (stereo partly drawn) [Compound 149, 4-chloro-5-(4-chloro-1-methyl-1H-pyrazol-5-yl)-N-((3S, 4S)-4-(3-fluorophenyl)-6-(2-(methylamido)-2-oxoethyl)piperidin-3-yl)thiophene-2-formamide], at Akt1, the pIC50 was 8.15. In addition, the half-inhibitory concentration (IC50) was 3.21 µM in assay [1] and 2.56 µM in assay [2].

For `Cc1nc(C(=O)N[C@H]2CNCC[C@@H]2c2ccc(F)c(F)c2)ncc1-c1c(Cl)cnn1C` (racemic) [Compound 52, 4-methyl-5-(4-chloro-1-methyl-1H-pyrazol-5-yl)-N-(3,4-trans-4-(3,4-difluorophenyl)piperidin-3-yl)pyrimidine-2-formamide], the pIC50 at Akt1 is 7.14. Moreover, the 50% inhibitory concentration (IC50) in assay [1] is 1.06 µM; in assay [2], 2.05 µM.

Take `Cn1ncc(Cl)c1-c1sc(C(=O)N[C@@H]2CNCC[C@H]2c2cccc(F)c2)cc1Cl` [Compound 139, 4-chloro-5-(4-chloro-1-methyl-1H-pyrazol-5-yl)-N-((3S, 4S)-4-(3-fluorophenyl)piperidin-3-yl)thiophene-2-formamide]: at Akt1, the pIC50 is 9.15. The figures for the 50% inhibitory concentration (IC50) in assay [1] and in assay [2] were 1.44 µM and 2.51 µM, respectively.

On to `Cn1ncc(Br)c1-c1coc(C(=O)N[C@H]2CNC[C@@H]2c2ccc(C(F)(F)F)cc2)c1` (racemic) [Compound 67, 4-(4-bromo-1-methyl-1H-pyrazol-5-yl)-N-(3,4-trans-4-(4-trifluoromethylphenyl)pyrrolidin-3-yl)furan-2-formamide], for which the pIC50 at Akt1 is 6.57. Moreover, the IC50 in assay [1] was 10.6 µM; in assay [2], 20.4 µM.

For the molecule `CCC[C@H]1CNC[C@@H](NC(=O)c2ccc(-c3c(Cl)cnn3C)s2)[C@@H]1c1cccc(F)c1` [Compound 151, 5-(4-chloro-1-methyl-1H-pyrazol-5-yl)-N-((3S, 4S, 5R)-4-(3-fluorophenyl)-5-propylpiperidin-3-yl)thiophene-2-formamide], the pIC50 at Akt1 is 9.00. Further, the half-maximal inhibitory concentration (IC50) in assay [1] is 1.52 µM; in assay [2], 2.5 µM.

Regarding `Cn1ncc(Cl)c1-c1cc(C(=O)N[C@@H]2CNC(CCN3CCC(O)CC3)C[C@H]2c2ccc(Cl)c(Cl)c2)oc1Cl` (stereo partly drawn) [Compound 114, 5-chloro-4-(4-chloro-1-methyl-1H-pyrazol-5-yl)-N-((3S,4S)-4-(3,4-dichlorophenyl)-6-(2-(4-hydroxylpiperidin-1-yl)ethyl)piperidin-3-yl)furan-2-formamide], the pIC50 at Akt1 is 7.85. In addition, the IC50 in assay [1] was 1.56 µM; in assay [2] it was 1.1 µM.

As for `Cn1ncnc1-c1cc(C(=O)N[C@H]2CNCC[C@@H]2c2ccc(C(F)(F)F)cc2)oc1Br` (racemic) [Compound 3, 5-bromo-4-(1-methyl-1H-1,2,4-triazol-5-yl)-N-(3,4-trans-4-(4-trifluoromethylphenyl)piperidin-3-yl)furan-2-formamide], the negative logarithm of the IC50 (pIC50) at Akt1 was 7.37. The IC50 was 13 µM in assay [1] and 8.9 µM in assay [2].

On to `Cn1ncc(Cl)c1-c1cc(C(=O)N[C@@H]2CNCC[C@H]2c2ccc(Cl)c(Cl)c2)oc1Cl` [Compound 40, 5-chloro-4-(4-chloro-1-methyl-1H-pyrazol-5-yl)-N-((3S,4S)-4-(3,4-dichlorophenyl)piperidin-3-yl)furan-2-formamide], for which, on Akt1, the negative-log IC50 (pIC50) was 6.93. Moreover, the values for the half-inhibitory concentration (IC50) in assay [1] and in assay [2] were 1.69 µM and 1.56 µM, respectively.

Take `Cn1nccc1-c1coc(C(=O)N[C@H]2CNCC[C@@H]2c2ccccc2)n1` (racemic) [Compound 19, 4-(1-methyl-1H-pyrazol-5-yl)-N-(3,4-trans-4-phenylpiperidin-3-yl)oxazole-2-formamide]: on Akt1, the negative logarithm of the IC50 (pIC50) is 7.09. Moreover, the 50% inhibitory concentration (IC50) in assay [1] is 9.83 µM; in assay [2] it was 4.56 µM.

Consider `C[C@H]1CNC[C@@H](NC(=O)c2cc(-c3c(Cl)cnn3C)c(Cl)s2)[C@@H]1c1cccc(F)c1` [Compound 135, 5-chloro-4-(4-chloro-1-methyl-1H-pyrazol-5-yl)-N-((3S, 4S, 5R)-4-(3-fluorophenyl)-5-methylpiperidin-3-yl)thiophene-2-formamide], for which, on Akt1, the pIC50 was 7.92. The figures for the 50% inhibitory concentration (IC50) in assay [1] and in assay [2] were 1.2 µM and 0.8 µM, respectively.

For the molecule `Cn1nccc1-c1coc(C(=O)N[C@H]2CNCC[C@@H]2c2ccccc2)c1` (racemic) [Compound 1, 4-(1-methyl-1H-pyrazol-5-yl)-N-(3,4-trans-4-phenylpiperidin-3-yl)furan-2-formamide], the pIC50 on Akt1 was 7.14. Also, the half-inhibitory concentration (IC50) is 1.34 µM in assay [1] and 3.98 µM in assay [2].

As for `Cn1ncc(Cl)c1-c1cnc(C(=O)N[C@@H]2CNCC[C@H]2c2ccc(F)c(F)c2)c(F)c1` [Compound 97, 5-(4-chloro-1-methyl-1H-pyrazol-5-yl)-N-((3S,4S)-4-(3,4-difluorophenyl)piperidin-3-yl)-3-fluoropicolinamide], the pIC50 at Akt1 is 8.10. The 50% inhibitory concentration (IC50) was 4.89 µM in assay [1] and 4.14 µM in assay [2].

With `C[C@H]1CNC[C@@H](NC(=O)c2cc(-c3c(Cl)cnn3C)c(Cl)o2)[C@@H]1c1cccc(F)c1` [Compound 136, 5-chloro-4-(4-chloro-1-methyl-1H-pyrazol-5-yl)-N-((3S, 4S, 5R)-4-(3-fluorophenyl)-5-methylpiperidin-3-yl)furan-2-formamide], at Akt1, the pIC50 was 8.70. The 50% inhibitory concentration (IC50) in assay [1] is 3.68 µM; in assay [2], 2.81 µM.

Consider `Cn1ncc(Cl)c1-c1cc(C(=O)N[C@H]2CNCC[C@@H]2c2ccc(Cl)c(Cl)c2)oc1Cl` [Compound 39, 5-chloro-4-(4-chloro-1-methyl-1H-pyrazol-5-yl)-N-((3R,4R)-4-(3,4-dichlorophenyl)piperidin-3-yl)furan-2-formamide], for which the pIC50 on Akt1 is 7.24. Moreover, the IC50 in assay [1] was 14.3 µM; in assay [2] it was 3.45 µM.

Consider `Cc1cnn(C)c1-c1cnc(C(=O)N[C@H]2CNCC[C@@H]2c2ccc(F)c(F)c2)cc1F` (racemic) [Compound 46, 4-fluoro-5-(1,4-dimethyl-1H-pyrazol-5-yl)-N-(3,4-trans-4-(3,4-difluorophenyl)piperidin-3-yl)pyridinyl-2-formamide], for which the pIC50 at Akt1 was 6.46. Also, the results for the IC50 in assay [1] and in assay [2] were 7.94 µM and 23.8 µM, respectively.

In the case of `COCCC1C[C@@H](c2ccc(Cl)c(Cl)c2)[C@H](NC(=O)c2cc(-c3c(Cl)cnn3C)c(Cl)o2)CN1` (stereo partly drawn) [Compound 124, 5-chloro-4-(4-chloro-1-methyl-1H-pyrazol-5-yl)-N-((3S,4S)-4-(3,4-dichlorophenyl)-6-(2-methoxyethyl)piperidin-3-yl)furan-2-formamide], the pIC50 on Akt1 is 9.00. For the same molecule, the results for the IC50 in assay [1] and in assay [2] were 0.56 µM and 0.34 µM, respectively.

For `CC(=O)NCCC1C[C@@H](c2ccc(F)c(F)c2)[C@H](NC(=O)c2cc(-c3c(Cl)cnn3C)c(Cl)o2)CN1` (stereo partly drawn) [Compound 126, N-((3S,4S)-6-(2-acetaminoethyl)-4-(3,4-difluorophenyl)piperidin-3-yl)-5-chloro-4-(4-chloro-1-methyl-1H-pyrazol-5-yl)furan-2-formamide], the negative logarithm of the IC50 (pIC50) at Akt1 is 9.70. The half-maximal inhibitory concentration (IC50) in assay [1] was 0.47 µM; in assay [2], 5.82 µM.

Take `Cn1ncc(Cl)c1-c1cc(C(=O)N[C@@H]2CNCC[C@H]2c2ccc(C(F)(F)F)cc2)oc1Cl` [Compound 44, 5-chloro-4-(4-chloro-1-methyl-1H-pyrazol-5-yl)-N-((3S,4S)-4-(4-trifluoromethylphenyl)piperidin-3-yl)furan-2-formamide]: the pIC50 at Akt1 is 6.17. Moreover, the IC50 in assay [1] is 1.88 µM; in assay [2] it was 18.3 µM.

Consider `Cn1ncc(Cl)c1-c1ccc(C(=O)N[C@@H]2CNCC[C@H]2c2cccc(F)c2)cc1Cl` [Compound 86, 3-chloro-4-(4-chloro-1-methyl-1H-pyrazol-5-yl)-N-((3S,4S)-4-(3-fluorophenyl)piperidin-3-yl)benzamide], for which the negative logarithm of the IC50 (pIC50) on Akt1 is 7.85. Also, the figures for the IC50 in assay [1] and in assay [2] were 1.26 µM and 1.47 µM, respectively.

Take `Cc1cc(-c2c(Cl)cnn2C)cc(C(=O)N[C@H]2CNCC[C@@H]2c2ccccc2)n1` (relative stereo) [Compound 45, 6-methyl-4-(4-chloro-1-methyl-1H-pyrazol-5-yl)-N-(3,4-trans-4-phenylpiperidin-3-yl)pyridinyl-2-formamide]: on Akt1, the negative logarithm of the IC50 (pIC50) was 6.09. Also, the 50% inhibitory concentration (IC50) in assay [1] was 2.01 µM; in assay [2] it was 12.6 µM.
